Experimental data reported in ChEMBL document CHEMBL1141189, “Preparation and biological evaluation of indole, benzimidazole, and thienopyrrole piperazine carboxamides: potent human histamine h(4) antagonists” (J Med Chem, 2005).

How the values were obtained:
Histamine H4 receptor [1] = target: T1, Histamine H4 receptor (Homo sapiens, UniProt Q9H3N8); assay: Antagonistic activity at human histamine H4 receptor in SK-N-MC cells by inhibition of forskolin-stimulated cAMP-mediated reporter gene activity; type: functional, cell-based; settings: for Kb: read-out: pA2 (converted)
Histamine H4 receptor [2] = target: T1, Histamine H4 receptor; assay: Displacement of [3H]histamine from recombinant human histamine H4 receptor in SK-N-MC cells; type: cell-based
[3] = Oral bioavailability in rat administered with 10 mg/kg, po; type: ADME, organism-based; settings: in vivo
[4] = In vitro half life in rat S9 fraction; type: ADME, Liver
[5] = In vitro half life in rat liver microsomes; type: ADME, Microsome
[6] = In vitro half life in human liver microsomes; type: ADME, Microsome
[7] = In vitro half life in human S9 fraction; type: ADME, Liver
Rattus norvegicus [8] = assay: Maximum concentration in rat administered with 10 mg/kg, po; type: ADME, organism-based; set-up: dose 10 mg/kg, route oral; settings: in vivo
[9] = Half life in rat administered with 10 mg/kg, po; type: ADME, organism-based; set-up: dose 10 mg/kg, route oral; settings: in vivo
Rattus norvegicus [10] = assay: Area under curve in rat administered with 10 mg/kg, po; type: ADME, organism-based; set-up: dose 10 mg/kg, route oral; settings: in vivo
[11] = Half life in rat administered with 2 mg/kg, iv; type: ADME, organism-based; set-up: dose 2 mg/kg, route intravenous; settings: in vivo
Histamine H3 receptor = Histamine H3 receptor (Homo sapiens, UniProt Q9Y5N1); assay: Binding affinity to histamine H3 receptor
Sequence of Histamine H3 receptor (Q9Y5N1 whole entry): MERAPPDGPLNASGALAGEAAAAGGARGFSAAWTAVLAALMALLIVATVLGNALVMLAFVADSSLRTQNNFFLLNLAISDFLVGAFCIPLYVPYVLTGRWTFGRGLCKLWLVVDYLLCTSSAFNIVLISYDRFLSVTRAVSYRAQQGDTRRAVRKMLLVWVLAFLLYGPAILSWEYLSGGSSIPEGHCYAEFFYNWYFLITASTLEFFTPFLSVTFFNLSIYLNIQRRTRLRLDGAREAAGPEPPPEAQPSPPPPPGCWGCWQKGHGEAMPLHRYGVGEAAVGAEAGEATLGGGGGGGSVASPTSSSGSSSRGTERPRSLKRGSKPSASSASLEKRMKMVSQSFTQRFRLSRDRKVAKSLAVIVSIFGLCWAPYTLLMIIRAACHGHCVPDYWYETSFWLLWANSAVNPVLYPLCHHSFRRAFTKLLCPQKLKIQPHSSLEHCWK

Row | Kb (Histamine H4 receptor [1]) [nM] | Ki (Histamine H4 receptor [2]) [nM] | SMILES | further results
1 | 79.4 | – | CN1CCN(C(=O)c2cc3cc(O)ccc3[nH]2)CC1 | –
2 | 79.4 | – | CN1CCN(C(=O)c2cc3cccc(Cl)c3[nH]2)CC1 | –
3 | 50.1 | – | CN1CCN(C(=O)c2cc3sc(Cl)cc3[nH]2)CC1 | –
4 | 31.6 | – | Cc1csc2cc(C(=O)N3CCN(C)CC3)[nH]c12 | –
5 | – | 90 | CN1CCN(C(=O)c2cc3ccsc3[nH]2)CC1 | –
6 | – | 427 | CN1CCN(C(=O)c2nc3cc(C(F)(F)F)ccc3[nH]2)CC1 | –
7 | 7.94 | – | CN1CCN(C(=O)c2cc3cccc(N)c3[nH]2)CC1 | –
8 | 126 | – | CN1CCN(C(=O)c2cc3cccc(Br)c3[nH]2)CC1 | –
9 | – | – | Cc1cccc2cc(C(=O)N3CCN(C)CC3)[nH]c12 | pA2 (Histamine H4 receptor [1]): 7.9
10 | 79.4 | 49 | CN1CCN(C(=O)c2nc3c(F)c(F)ccc3[nH]2)CC1 | –
11 | 20 | – | CN1CCN(C(=O)c2cc3cc(F)ccc3[nH]2)CC1 | –
12 | 20 | 27 | Cc1c(F)ccc2[nH]c(C(=O)N3CCN(C)CC3)cc12 | –
13 | 25.1 | 30 | Cc1cccc2[nH]c(C(=O)N3CCN(C)CC3)nc12 | –
14 | 6.31 | – | CN1CCN(C(=O)c2cc3c(Cl)c(Cl)ccc3[nH]2)CC1 | –
15 | – | 136 | CN1CCN(C(=O)c2nc3cc(Cl)cc(Cl)c3[nH]2)CC1 | –
16 | – | – | CN1CCN(C(=O)c2cc3cc(Cl)ccc3[nH]2)CC1 [JNJ-7777120] | bioavailability [3]: 22%; half-life [4]: 1.07 h; half-life [5]: 0.075 h; half-life [6]: 0.467 h; half-life [7]: 1.67 h; Cmax (Rattus norvegicus [8]): 1800 nM; half-life [9]: 2.3 h; AUC (Rattus norvegicus [10]): 7 uM.h/L
17 | 15.8 | – | CN1CCN(C(=O)c2cc3cc(Br)ccc3[nH]2)CC1 | –

Row | Kb (Histamine H4 receptor [1]) [nM] | Ki (Histamine H4 receptor [2]) [nM] | SMILES | further results
18 | 20 | – | Cc1c(Cl)sc2cc(C(=O)N3CCN(C)CC3)[nH]c12 | –
19 | 15.8 | 7 | Cc1c(F)ccc2[nH]c(C(=O)N3CCN(C)CC3)nc12 | –
20 | – | 412 | CN1CCN(C(=O)c2cc3cc(C(F)(F)F)ccc3[nH]2)CC1 | –
21 | – | 90 | CN1CCN(C(=O)c2cc3sccc3[nH]2)CC1 | –
22 | 12.6 | – | CN1CCN(C(=O)c2cc3cc(Cl)sc3[nH]2)CC1 | half-life [11]: 6 min; half-life [4]: 0.783 h; half-life [6]: 0.883 h; Cmax (Rattus norvegicus [8]): < 100 nM
23 | – | 244 | CN1CCN(C(=O)c2nc3c(N)cccc3[nH]2)CC1 | –
24 | – | – | O=C(c1cc2ccccc2[nH]1)N1CCNCC1 | Ki (Histamine H3 receptor): 9000 nM
25 | 126 | 23 | Cc1cc(Cl)c2nc(C(=O)N3CCN(C)CC3)[nH]c2c1 | –
26 | 20 | – | CN1CCN(C(=O)c2cc3cc(F)cc(F)c3[nH]2)CC1 | –
27 | 31.6 | – | Cc1cc(C)c2[nH]c(C(=O)N3CCN(C)CC3)cc2c1 | –
28 | 63.1 | 35 | CN1CCN(C(=O)c2nc3ccccc3[nH]2)CC1 | –
29 | 20 | 26 | CN1CCN(C(=O)c2nc3cc(Cl)ccc3[nH]2)CC1 | Ki (Histamine H3 receptor): 14100 nM; bioavailability [3]: 27%; half-life [4]: 1.47 h; half-life [5]: 0.2 h; half-life [6]: 1.67 h; half-life [7]: 1.67 h; Cmax (Rattus norvegicus [8]): 1800 nM; half-life [9]: 1 h; AUC (Rattus norvegicus [10]): 2.1 uM.h/L
30 | 20 | – | Cc1ccc2[nH]c(C(=O)N3CCN(C)CC3)cc2c1 | –
31 | 50.1 | 33 | Cc1cc(Cl)c2[nH]c(C(=O)N3CCN(C)CC3)cc2c1 | –
32 | 158 | – | CN1CCN(C(=O)c2cc3c(Br)cccc3[nH]2)CC1 | –
33 | 10 | – | CN1CCN(C(=O)c2cc3cc(Cl)cc(Cl)c3[nH]2)CC1 | –
34 | 50.1 | 19 | CN1CCN(C(=O)c2nc3cc(F)ccc3[nH]2)CC1 | –
